Experiment: Stability of pure lycopene isomers in n-hexane during storage at room temperature
Assay type: physicochemical
Settings: for concentration 5-Z / concentration 9-Z / concentration 13-Z / concentration all E / concentration x-Z: n-hexane; for transformation pathway during storage: storage in n-hexane
Protocol: Pure 5-Z, 9-Z, 13-Z and all-E lycopene were isolated from isomerised tomato oleoresin (submitted to 1 hour heating), by collecting the fractions containing the corresponding peaks after HPLC separation (see below the experimental conditions). Peaks were collected during two consecutive HPLC runs and the corresponding fractions were pooled.
Amount of total lycopene was determined by reverse phase HPLC on a C18 precolumn (ODS Hypersil, 5 μm, 20×4 mm; Hewlett Packard, Geneva, Switzerland) and a C18 column (Nova pak, 3.9 μm i.d.×300 mm length, Millipore, Volketswil, Switzerland). […] The mobile phase flow rate was 1.5 mL/min. Lycopene isomer profiles were determined by normal phase HPLC according to the method described by Schierle et al. (1997). Food. Chem. 59: 459. Samples of isomerized oleoresins were dissolved in n-hexane containing 50 ppm BHT and spun at maximum speed in an Eppendorf Lab centrifuge. The resulting supernatants were immediately analyzed by HPLC. The HPLC system used was a 1100 series Hewlett-Packard model equipped with an ultraviolet-visible photodiode array detector. Data were simultaneously acquired at 470 nm, 464 nm, 346 nm and 294 nm. Samples (10 μl) were separated using a combination of three Nucleosil 300-5 columns (4 mm internal diameter×250 mm length, Macherey-Nagel). […] Flow rate was 0.8 mL/min. Lycopene Z-isomers were identified according to literature data.
Amounts of lycopene isomers were calculated based on surface areas of the HPLC peaks using the same extinction coefficient as the all-E lycopene. Therefore, the lycopene concentration in products containing Z-isomers is slightly underestimated since it is recognized that the extinction coefficients of Z-isomers are lower than that of the all-E isomer. Conditions for Stability Tests
Stability of lycopene isomers was investigated both in n-hexane and in a tomato oleoresin isomerized by 4 hour heating in ethyl acetate. For this purpose, pure lycopene isomers were stored for 33 days in n-hexane at room temperature and in the absence of light, and the isomerized tomato oleoresin was kept for 55 days at room temperature in the absence of light. Total lycopene concentration and lycopene isomer profiles were measured at various time intervals during the storage.

[1] = room temperature, absence of light, 0 days
[2] = room temperature, absence of light, 1 day
[3] = room temperature, absence of light, 2 days
[4] = room temperature, absence of light, 5 days
[5] = room temperature, absence of light, 12 days
[6] = room temperature, absence of light, 33 days

Row | Compound | concentration 5-Z [1] | concentration all E [1] | concentration x-Z [1] | concentration 5-Z [2] | concentration all E [2] | concentration x-Z [2] | concentration 5-Z [3] | concentration all E [3] | concentration x-Z [3] | concentration 5-Z [4] | concentration all E [4] | concentration x-Z [4] | concentration 5-Z [5] | concentration 9-Z [5] | concentration 13-Z [5] | concentration all E [5] | concentration x-Z [5] | concentration 5-Z [6] | concentration 9-Z [6] | concentration 13-Z [6] | also measured
1 | CC(C)=CCC/C(C)=C/C=C/C(C)=C\C=C\C(C)=C\C=C\C=C(C)\C=C\C=C(C)\C=C\C=C(/C)CCC=C(C)C [9-Z lycopene] | 1.8 % of total isomers | 4.4 % of total isomers | 0 % of total isomers | 2.1 % of total isomers | 5.8 % of total isomers | 2.8 % of total isomers | 11.6 % of total isomers | 6.0 % of total isomers | 5.9 % of total isomers | 1.5 % of total isomers | 5.6 % of total isomers | 8.6 % of total isomers | 2.3 % of total isomers | 66.5 % of total isomers | 8.2 % of total isomers | 7.0 % of total isomers | 15.9 % of total isomers | 4.1 % of total isomers | 56.0 % of total isomers | 10.5 % of total isomers | concentration 9-Z [1]: 93.3 % of total isomers; concentration 13-Z [1]: 0.6 % of total isomers; concentration 9-Z [2]: 87.1 % of total isomers; concentration 13-Z [2]: 2.3 % of total isomers; concentration 9-Z [3]: 83.5 % of total isomers; concentration 13-Z [3]: 3.1 % of total isomers; concentration 9-Z [4]: 79.2 % of total isomers; concentration 13-Z [4]: 5.2 % of total isomers; concentration all E [6]: 9.8 % of total isomers; concentration x-Z [6]: 19.7 % of total isomers; transformation pathway during storage: principally transformed into other Z-isomers
2 | CC(C)=CCC\C(C)=C/C=C/C(C)=C/C=C/C(C)=C/C=C/C=C(C)/C=C/C=C(C)/C=C/C=C(\C)CCC=C(C)C [5-Z lycopene] | 95.5 % of total isomers | 1.1 % of total isomers | 3.4 % of total isomers | 84.3 % of total isomers | 2.2 % of total isomers | 13.5 % of total isomers | 76.9 % of total isomers | 2.4 % of total isomers | 20.6 % of total isomers | 68.4 % of total isomers | 3.9 % of total isomers | 27.7 % of total isomers | 65.3 % of total isomers | 0.7 % of total isomers | 1.7 % of total isomers | 5.6 % of total isomers | 26.7 % of total isomers | 53.5 % of total isomers | 2.3 % of total isomers | 2.8 % of total isomers | concentration all E [6]: 10.7 % of total isomers; concentration x-Z [6]: 30.7 % of total isomers; transformation pathway during storage: principally transformed into other Z-isomers
3 | CC(C)=CCC/C(C)=C/C=C/C(C)=C/C=C/C(C)=C\C=C\C=C(C)\C=C\C=C(C)\C=C\C=C(/C)CCC=C(C)C [13-Z lycopene] | 0 % of total isomers | 2.4 % of total isomers | 1.0 % of total isomers | 0 % of total isomers | 42.6 % of total isomers | 0 % of total isomers | 0 % of total isomers | 59.8 % of total isomers | 1.5 % of total isomers | 1.9 % of total isomers | 68.9 % of total isomers | 4.3 % of total isomers | 5.3 % of total isomers | 2.6 % of total isomers | 20.8 % of total isomers | 65.5 % of total isomers | 5.8 % of total isomers | 11.7 % of total isomers | 4.2 % of total isomers | 16.9 % of total isomers | fraction of the isomer transformed / converted into other isomers (after 33 day storage in n-hexane, room temperature, absence of light): more than 80%; stability compared with the 5-Z, 9-Z and all-E isomers (both stability tests (n-hexane and tomato oleoresin)): much less stable; concentration 9-Z [1]: 0 % of total isomers; concentration 13-Z [1]: 96.6 % of total isomers; concentration 9-Z [2]: 0.4 % of total isomers; concentration 13-Z [2]: 57.0 % of total isomers; concentration 9-Z [3]: 0 % of total isomers; concentration 13-Z [3]: 38.7 % of total isomers; concentration 9-Z [4]: 1.5 % of total isomers; concentration 13-Z [4]: 23.4 % of total isomers; concentration all E [6]: 57.0 % of total isomers; concentration x-Z [6]: 10.2 % of total isomers; transformation pathway during storage: mainly converted into the all-E isomer
4 | CC(C)=CCC/C(C)=C/C=C/C(C)=C/C=C/C(C)=C/C=C/C=C(C)/C=C/C=C(C)/C=C/C=C(\C)CCC=C(C)C [all-E lycopene] | 0.5 % of total isomers | 97.6 % of total isomers | 0.1 % of total isomers | 1.2 % of total isomers | 86.0 % of total isomers | 1.5 % of total isomers | 2.6 % of total isomers | 78.4 % of total isomers | 3.0 % of total isomers | 3.8 % of total isomers | 69.3 % of total isomers | 5.1 % of total isomers | 6.4 % of total isomers | 2.0 % of total isomers | 18.2 % of total isomers | 67.8 % of total isomers | 5.6 % of total isomers | 13.4 % of total isomers | 3.8 % of total isomers | 15.7 % of total isomers | concentration 9-Z [1]: 0.5 % of total isomers; concentration 13-Z [1]: 1.4 % of total isomers; concentration 9-Z [2]: 1.2 % of total isomers; concentration 13-Z [2]: 10.1 % of total isomers; concentration 9-Z [3]: 1.1 % of total isomers; concentration 13-Z [3]: 15.0 % of total isomers; concentration 9-Z [4]: 2.2 % of total isomers; concentration 13-Z [4]: 19.6 % of total isomers; concentration all E [6]: 58.7 % of total isomers; concentration x-Z [6]: 8.4 % of total isomers
